Measured values from patent US10179160B2, “Therapeutic compositions for the treatment of dry eye disease” (SCHEPENS EYE RESEARCH INSTITUTE, priority 2010, dated 2019).

Tests used:
DED mice [1] = experiment: Enumeration of CD11b+ cells in DED corneas (immunohistochemistry); format: in vivo
Description: (§1) Eight to ten week-old female C57BLI6 mice (Charles River Laboratory, Wilmington, Mass.) were used in accordance with the standards in the ARVO Statement for the Use of Animals in Ophthalmic and Vision Research. The research protocol was approved by the Schepens Eye Research Institute Animal Care and Use Committee. Dry eye was induced in murine eyes using a Controlled Environment Chamber (CEC) which exposes the mice to high-flow desiccated air. […]
(§2) Freshly excised corneas were washed in PBS, fixed in acetone for 15 minutes and then double stained with CD31 and LYVE-1 as described previously. To analyze infiltration of CD11b^+/LYVE-1 cells, corneas from three mice from each group were taken and cells were counted in 5-6 areas in the periphery ([…] area from the limbus) of each cornea in a masked fashion, using epifluorescence microscope (model E800; Nikon, Melville, N.Y.) at 40× magnification. The mean number of cells was obtained by averaging the total number of cells in all the areas studied and the result was expressed as the number of positive cells per mm^2.
(§3) Anti-VEGF-C antibodies (VGX-100; Vegenics Limited, Australia) were administered intraperitonealy daily from day 1 to day 10 to DED mice. Mice were assessed clinically using corneal fluorescent staining. […]

DED mice [2] = experiment: Real-time PCR of proinflammatory cytokines in conjunctiva of DED mice; format: in vivo
Description: (§4) Eight to ten week-old female C57BLI6 mice (Charles River Laboratory, Wilmington, Mass.) were used in accordance with the standards in the ARVO Statement for the Use of Animals in Ophthalmic and Vision Research. The research protocol was approved by the Schepens Eye Research Institute Animal Care and Use Committee. Dry eye was induced in murine eyes using a Controlled Environment Chamber (CEC) which exposes the mice to high-flow desiccated air. To achieve maximum ocular surface dryness, the conditions in CEC were supplemented with topical application of 1% atropine sulfate (Falcon Pharma, Fort Worth, Tex.) twice for the first 48 hours and subcutaneous injections of 0.1 ml of 5 mg/ml of scopolamine hydrobromide (Sigma-Aldrich, St. Louis, Mo.) three times a day, for the entire duration of the experiment.
(§5) Five mice (10 eyes) were included in each group. Two corneas were pooled together to equal as one sample and stored at −80′C in Trizol (Invitrogen, Carlsbad, Calif.; catalog No. 15596026) until future use. Total RNA was isolated from these corneas using the RNeasy microkit (Qiagen, Valencia, Calif.; catalog No. 74004). Equal amounts of RNA were used to synthesize cDNA using SuperScript™ III Reverse Trancriptase (Invitrogen, Carlsbad, Calif.; catalog No. 18080) according to the manufacturer's recommendations. Real-Time PCR was performed using FAM-MGB dye labeled predesigned primers (Applied Biosystem, Foster City, Calif.) for GAPDH (assay ID.Mm999999 15_g1), VEGF-A (Mm00437304_m1), VEGF-C (Mrn00437313_m1), VEGF-D (Mm00438965_m1), VEGFR-2 (Mm00440099_m1), VEGFR-3 (Mm00433337_m1). 2.5 μl of cDNA was loaded in each well and assays were performed in duplicate. The GAPDH gene was used as the endogenous reference for each reaction. The results were normalized by the cycle threshold (CT) of GAPDH and the relative mRNA level in the normal mice was used as the normalized control.
(§6) Anti-VEGF-C antibodies (VGX-100; Vegenics Limited, Australia) were administered intraperitonealy daily from day 1 to day 10 to DED mice. Mice were assessed clinically using corneal fluorescent staining. Tissues from cornea, conjunctiva and draining lymph nodes were examined for cellular and molecular pathological changes.
(§7) Real time PCR was performed to quantify expression of different VEGF growth factors (VEGF-A, VEGF-C, VEGF-D) and their receptors (VEGFR-2, VEGFR-3) in the cornea at days 6, 10 and 14 (FIG. 8) and to determine the levels of proinflammatory cytokines.

DED mice [3] = experiment: Corneal fluorescein staining / clinical signs in experimental dry eye murine model; format: in vivo; settings: for clinical signs of DED / disease severity: anti-VEGF-C-treated vs untreated DED mice
Description: as §4, §6
Corneal lymphatics play an important role in mediating the corneal inflammation in dry eyes. Experiments: To validate this, inhibition of corneal neolymphangiogenesis was performed in a well characterized mouse model of DED described above. To see if inhibition of corneal neolymphangiogenesis could decrease ocular surface inflammation, anti-VEGF-C antibodies were administered i.p. daily from day −1 to day 10 to DED mice and assessed clinically using corneal fluorescein staining.
Methods (as described previously): Induction of Dry Eye Disease. Experimental Dry Eye Murine Model. Assessment of Corneal Surface: Corneal Fluorescein Staining. Immunohistochemistry: Monocyte/macrophage marker—CD11b; Pan-endothelial marker—CD31; Lymphatic endothelial marker—LYVE-1; Blood vessels: CD31^hi/LYVE-1; Lymph vessels: CD31^lo/LYVE-1^hi. Morphometry of Lymphangiogenesis: Automated image analysis program written using Mat lab. Lymphatic Area (LA)—total surface area of the lymphatic vessels when projected into the plane of the image. Lymphatic Caliber (LC)—measure of the diameters of the lymphatic vessels.
Anti-VEGF-C antibody and treatment regimen. Experimental design: Three groups: Normal, DE group treated with IP normal Saline (Untreated) and DE group treated with anti-VEGF-C antibody (VGX-100; a gift from Vegenics, Australia). Daily IP application of anti-VEGF-C antibody/Normal saline from day −1 to day 13. Dose: […] (20 mg/kg) in […] of Normal Saline.

DED mice [4] = experiment: Real-time PCR of pro-lymphangiogenic growth factors and receptors in DE corneas; format: in vivo; settings: VEGF-C blockade in DED mice
Description: as §4
as §5, with “The results were normalized by the cycle threshold (CT) of GAPDH and the relative mRNA level in the normal mice was used as the normalized control.” left out
as §7

DED mice [5] = experiment: Corneal lymphangiogenesis (lymphatic growth) in DED mice; settings: in vivo blockade of VEGF-C in DED mice
Description: as §1, §2
Morphology of lymphatics was analyzed using an automated image analysis program written with Matlab (The Mathworks, Inc., Natick, Mass.). […] The resultant isolated lymphatic vessels were analyzed morphologically using two metrices, Lymphatic Area (LA) and Lymphatic Caliber (LC). […]

DED mice [6] = experiment: Real-time PCR of IL-17 and IFN-γ in draining lymph nodes of DED mice; format: in vivo; settings: anti-VEGF-C treated vs untreated DED mice
Description: as §4
Five mice (10 eyes) were included in each group. […]
as §3, §7

[7] = real-time PCR, anti-VEGF-C treated vs untreated DED mice

## VGX-100: human anti-VEGF-C monoclonal antibody produced by hybridoma ATCC PTA-4095, heavy/light chains SEQ ID NO: 48/49; from Vegenics
DED mice [1]; VEGF-C blockade in DED mice
  corneal infiltration of CD11b+ cells: decrease
DED mice [1]; day 14
  decrease of infiltration of CD11b+ cells in the DED corneas: 30%
DED mice [2]; VEGF-C blockade in DED mice
  mRNA expression levels of proinflammatory cytokines in the conjunctiva: decrease
DED mice [2]; [7]
  IL-1α expression in conjunctiva: significantly decreased expression
  IL-1β expression in conjunctiva: significantly decreased expression
  IL-6 expression in conjunctiva: significantly decreased expression
  IL-17 expression in conjunctiva: significantly decreased expression
DED mice [3]; VEGF-C blockade in DED mice
  corneal epitheliopathy: decrease
DED mice [3]; anti-VEGF-C Ab-treated vs untreated DED mice, days 5, 9 and 13, daily IP, 20 mg/kg
  Corneal fluorescein staining (CFS) score: significantly decreased
DED mice [3]; daily IP
  clinical signs of DED / disease severity: ameliorates
DED mice [3]; daily IP, listed as anti-VEGF-C
  clinical signs of DED / disease severity: significant decrease
DED mice [4]
  expression of VEGF-C in DE corneas: decrease
  expression of VEGF-D in DE corneas: decrease
  expression of VEGFR-3 (R3) in DE corneas: decrease
DED mice [5]
  corneal lymphangiogenesis / lymphatic growth: suppresses
DED mice [5]; listed as anti-VEGF-C
  corneal lymphangiogenesis / lymphatic growth: suppression
DED mice [6]
  IFN-γ (Th1 cells) in draining lymph nodes, induction of T-cell mediated autoimmune response: significantly decreased induction
  IL-17 (Th17 cells) in draining lymph nodes, induction of T-cell mediated autoimmune response: significantly decreased induction
